Experiment [1] has as its system THP1-Dual cells. Nature of the experiment: Effects on THP1-Dual cells: activation of the IRF pathway (Quanti-luc luminescence). The class given is cell-based. Conditions: Homo sapiens, incubation about 24 hours. Here is the method: THP1-Dual cells (Invivogen) were suspended in RPMI medium to prepare 2×10^6 cells/mL of cell suspension. 50 μL of the cell suspensions were dispensed into a 96-well plate, to which 50 μL of 6 to 20,000 nmol/L compound solutions were added. After adding the compound, the mixture was incubated at 37° C. for about 24 hours. After incubation, 10 μL of cell suspensions were collected from the respective wells, which were mixed with 50 μL of Quanti-luc (Invivogen). Then, the activation of the IRF (Interferon regulatory factor) pathway was measured by detecting luminescence using a microplate reader (Molecular Devices).

Experiment [2] has as its system THP1-Dual-STING KO cells. Description: Activity on THP1-Dual-STING KO cells: IRF pathway (Quanti-luc luminescence). Type of experiment: cell-based. The conditions noted are these: STING gene homozygous deficient THP1-Dual cells, 6 to 20,000 nM compound solutions, about 24 hours. Here is the method: STING gene homozygous deficient THP1-Dual cells (THP1-Dual-STING KO cells (Invivogen) were suspended in RPMI medium to prepare 2×10^6 cells/mL cell suspension. 50 μL of cell suspensions were dispensed into a 96-well plate, to which 50 μL of 6 to 20,000 nM compound solutions were further added, followed by incubation at 37° C. for about 24 hours. 10 μL of the cell suspensions were collected from the respective wells, which were mixed with 50 μL of Quanti-luc (Invivogen), and then the activity of the IRF pathway was measured by detecting luminescence using a microplate reader.

Experiment [3] concerns the target T1, IDO1 (Homo sapiens, UniProt P14902).
T1 construct: His-tag; purchased BPS Bioscience
Description: Evaluation of IDO1 inhibitory activity (IDO1 Fluorogenic Inhibitor Screening Assay Kit). Type of experiment: biochemical. Conditions: compound solutions of 0.6, 2, 6, 20, 60 and 200 μmol/L added. On the procedure:
The evaluation of IDO1 inhibitory activity was carried out using the IDO1 Fluorogenic Inhibitor Screening Assay Kit (BPS Bioscience). Specifically, IDO1 Fluorogenic Reaction Solution was dissolved, of which 180 μL were added to each well. Then, 10 μL of compounds at the respective concentrations of 0.6, 2, 6, 20, 60 and 200 μmol/L were added thereto. Further, after adding 10 μL of IDO1 His-Tag solution thereto, of which the mixtures were incubated at room temperature for 1 hour, and then 20 μL of Fluorescence Solution was added thereto, of which the mixtures were incubated at 37° C. for 4 hours. After standing them at room temperature for 10 minutes, the fluorescence was measured using a microplate reader (excitation: 400 nm, emission: 510 nm).

Experiment [4] concerns BTK, KDR, each subtype of PKCα to ι, each CDK of CDK2 to 9, FAK, TIE2, RAF1 and BRAF. Description: Evaluation of inhibitory activity against various kinases (mobility shift, LabChip). Type of experiment: biochemical. Conditions: 4 μmol/L test substance solution (4 times the final concentration). Here is the method:
4 μmol/L of test substance solution (the compound of the present invention shown in Example 1) (at 4 times the final concentration) was prepared by dissolving it to the assay buffer (20 mmol/L HEPES, 0.01% Triton X-100, 1 mmol/L DTT, pH 7.5). 4 μmol/L of substrate/ATP/metal solution (at 4 times the final concentration) was prepared by dissolving them to the kit buffer (20 mmol/L HEPES, 0.01% Triton X-100, 5 mmol/L DTT, pH 7.5).
Various kinase solutions at twice the final concentration were prepared by dissolving them to the assay buffer. 5 μL of the test substance solution, 5 μL of the substrate/ATP/metal solution and 10 μL of the kinase solution were mixed in wells of a polypropylene 384-well plate, of which the mixture was reacted at room temperature for 1 to 5 hours. The reaction was stopped by adding 70 μL of the termination buffer (QuickScout Screening Assist MSA; Cama Biosciences). The substrate peptide and phosphorylated peptide in the reaction solution were separated and quantified by LabChip system (Perkin Elmer). The kinase reaction was evaluated by the product ratio (P/(P+S)) calculated from the peak height (S) of the substrate peptide and the peak height (P) of the phosphorylated peptide. The various kinases used for evaluation are as follows:
BTK, KDR, each subtype of PKCα to ι, each CDK of CDK2 to 9, FAK, TIE2, RAF1 and BRAF.

The subject of experiment [5] is mouse colon cancer cell line MC38. Description: Anti-tumor effect in tumor model bearing subcutaneous mouse colon cancer cell line MC38. Conditions: 3 mg/kg, administered 7 days after MC38 transplantation, measured until Day 26. Type of experiment: in vivo, mice (C57/BL6). On the procedure: Colon cancer cell line MC38 derived from C57/BL6 mice were subcutaneously transplanted to right flank of syngeneic mice (C57/BL6, female, 6 weeks old (Charles River Japan)) (herein, the day of transplantation was Day 0) to prepare tumor mice bearing subcutaneous MC38. Seven days after transplantation, tumor mice bearing subcutaneous MC38 were grouped based on tumor volume, and used as the Vehicle group (n=8) and the compound administration group (3 mg/kg, n=6) shown in Example 1. The changes in tumor volume were continuously measured until the 26 days after transplantation (Day 26). The tumor volume was calculated by the following formula: [Tumor volume (mm^3)]=[major axis (mm)]×[minor axis (mm)]^2×0.5
Colon cancer cell line MC38 derived from C57/BL6 mice were subcutaneously transplanted to right flank of syngeneic mice (C57/BL6, female, 6 weeks old (Charles River Japan)) (herein, the day of transplantation was Day 0) to prepare tumor mice bearing subcutaneous MC38. They were grouped based on tumor volume 7 or 8 days after transplantation, to which the Vehicle (n=8 or 6) and the respective compounds of Examples 10 and 10(1) to 10(6) (1, 1, 1, 10, 3, 1 and 1 mg/kg, n=8 or 6) were administered. The changes in tumor volume were measured serially until the 28 or 30 days after transplantation (Day 28 or 30). The tumor volume was calculated from the formula shown in Example 16.

SMILES strings stand for the structures. Counter-ions that a name gives are not always drawn.

T1 sequence (P14902 whole entry): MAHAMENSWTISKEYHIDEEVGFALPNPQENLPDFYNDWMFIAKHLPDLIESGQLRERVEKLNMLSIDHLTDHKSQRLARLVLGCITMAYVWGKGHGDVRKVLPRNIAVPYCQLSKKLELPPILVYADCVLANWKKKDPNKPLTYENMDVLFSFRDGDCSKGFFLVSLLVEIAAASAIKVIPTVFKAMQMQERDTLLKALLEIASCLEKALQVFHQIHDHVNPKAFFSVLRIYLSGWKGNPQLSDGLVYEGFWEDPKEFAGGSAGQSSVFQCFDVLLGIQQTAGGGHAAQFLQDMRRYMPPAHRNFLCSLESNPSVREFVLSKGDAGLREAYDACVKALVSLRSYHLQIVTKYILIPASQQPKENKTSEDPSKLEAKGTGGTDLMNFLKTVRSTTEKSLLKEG

For the compound `COC(=O)c1cc(-c2ncc(-c3cn[nH]c3)c3onc(N)c23)c(F)cc1N` [Example 1, methyl 2-amino-5-(3-amino-7-(1H-pyrazol-4-yl)isoxazolo[4,5-c]pyridin-4-yl)-4-fluorobenzoate], the EC50 (in general, the concentration giving half of the maximal effect) in experiment [1] stood at 180 nM. Also, the IRF activating effect result in experiment [2] is “no IRF activating effect”. For the same compound, the IDO1 inhibitory activity result in experiment [3] is “did not show any IDO1 inhibitory activity”. For the same compound, the “inhibitory activity against the evaluated kinases” value in experiment [4] was “did not showed any significantly inhibit activities”. In experiment [5], the “tumor growth (tumor volume)” value is reported as “almost completely suppressed the tumor growth”.

Turning to `COc1cc(-c2ncc(-c3cn[nH]c3)c3onc(N)c23)c(F)cc1N` [Example 2, 4-(4-amino-2-fluoro-5-methoxyphenyl)-7-(1H-pyrazol-4-yl)isoxazolo[4,5-c]pyridin-3-amine hydrochloride], in experiment [1], the response was half-maximal at 1930 nM (EC50).

As for `CC(=O)c1cc(-c2ncc(-c3cn[nH]c3)c3onc(N)c23)c(F)cc1N` [Example 3, 1-(2-amino-5-(3-amino-7-(1H-pyrazol-4-yl)isoxazolo[4,5-c]pyridin-4-yl)-4-fluorophenyl)ethan-1-one], the response in experiment [1] was half-maximal at 40 nM (EC50).

With `CS(=O)(=O)c1cc(-c2ncc(-c3cn[nH]c3)c3onc(N)c23)c(F)cc1N` [Example 4(3), 4-(4-amino-2-fluoro-5-(methylsulfonyl)phenyl)-7-(1H-pyrazol-4-yl)isoxazolo[4,5-c]pyridin-3-amine hydrochloride], in experiment [1], the midpoint of the response, the EC50, lay at 950 nM.

`NC(=O)c1cc(-c2ncc(-c3cn[nH]c3)c3onc(N)c23)c(F)cc1N` [Example 4(5), 2-amino-5-(3-amino-7-(1H-pyrazol-4-yl)isoxazolo[4,5-c]pyridin-4-yl)-4-fluorobenzamide hydrochloride]: a half-maximal response in experiment [1] (EC50) required 80 nM.

Consider `CCOC(=O)c1cc(-c2ncc(-c3cn[nH]c3)c3onc(N)c23)c(F)cc1N` [Example 4(6), ethyl 2-amino-5-(3-amino-7-(1H-pyrazol-4-yl)isoxazolo[4,5-c]pyridin-4-yl)-4-fluorobenzoate hydrochloride], for which the EC50 in experiment [1] was found to be 40 nM.

As to `CCC(=O)c1cc(-c2ncc(-c3cn[nH]c3)c3onc(N)c23)c(F)cc1N` [Example 4(7), 1-(2-amino-5-(3-amino-7-(1H-pyrazol-4-yl)isoxazolo[4,5-c]pyridin-4-yl)-4-fluorophenyl)propan-1-one hydrochloride], in experiment [1], the midpoint of the response, the EC50, lay at 20 nM.

As to `CCNC(=O)c1cc(-c2ncc(-c3cn[nH]c3)c3onc(N)c23)c(F)cc1N` [Example 4(8), 2-amino-5-(3-amino-7-(1H-pyrazol-4-yl)isoxazolo[4,5-c]pyridin-4-yl)-N-ethyl-4-fluorobenzamide hydrochloride], the EC50 in experiment [1] was determined as 20 nM.

The compound `CC(=O)c1cc(-c2ncc(-c3cn[nH]c3)c3onc(N)c23)ccc1N` [Example 4(9), 1-(2-amino-5-(3-amino-7-(1H-pyrazol-4-yl)isoxazolo[4,5-c]pyridin-4-yl)phenyl)ethan-1-one hydrochloride] showed an EC50 in experiment [1] of 130 nM.

`CNC(=O)c1cc(-c2ncc(-c3cn[nH]c3)c3onc(N)c23)ccc1N` [Example 4(15), 2-amino-5-(3-amino-7-(1H-pyrazol-4-yl)isoxazolo[4,5-c]pyridin-4-yl)-N-methylbenzamide hydrochloride] showed an EC50 in experiment [1] of 100 nM.

With `CSc1cc(-c2ncc(-c3cn[nH]c3)c3onc(N)c23)c(Cl)cc1N` [Example 4(16), 4-(4-amino-2-chloro-5-(methylthio)phenyl)-7-(1H-pyrazol-4-yl)isoxazolo[4,5-c]pyridin-3-amine hydrochloride], the EC50 in experiment [1] amounted to 1000 nM.

Turning to `CSc1cc(-c2ncc(-c3cn[nH]c3)c3onc(N)c23)c(F)cc1N` [Example 4, 4-(4-amino-2-fluoro-5-(methylthio)phenyl)-7-(1H-pyrazol-4-yl)isoxazolo[4,5-c]pyridin-3-amine hydrochloride], the half-maximal effective concentration (EC50) in experiment [1] was found to be 90 nM.
